Experimental data: ChEMBL document CHEMBL4177730, “Rational modification of semaxanib and sunitinib for developing a tumor growth inhibitor targeting ATP binding site of tyrosine kinase” (2018)
Active and inactive are the calls of the source. No cut-off for these calls is given here.

Tests used:
K562 = test: Growth inhibition of human K562 cells at 10 uM after 48 hrs by sulforhodamine B assay; format: functional, cell-based
SK-OV-3 = test: Growth inhibition of human SKOV3 cells at 10 uM after 48 hrs by sulforhodamine B assay; format: functional, cell-based
CCRF-CEM = test: Growth inhibition of human CCRF-CEM cells at 10 uM after 48 hrs by sulforhodamine B assay; format: functional, cell-based
SNB-19 [1] = test: Growth inhibition of human SNB19 cells at 10 uM after 48 hrs by sulforhodamine B assay; format: functional, cell-based
MDA-MB-231 [2] = test: Growth inhibition of human MDA-MB-231 cells after 48 hrs by sulforhodamine B assay; format: functional; conditions: MDA-MB-231, 48 h
COLO 205 [3] = test: Growth inhibition of human COLO205 cells after 48 hrs by sulforhodamine B assay; format: functional; conditions: COLO 205, 48 h
BT-549 [4] = test: Growth inhibition of human BT549 cells after 48 hrs by sulforhodamine B assay; format: functional; conditions: BT-549, 48 h
HCT-116 = test: Growth inhibition of human HCT116 cells after 48 hrs by sulforhodamine B assay; format: functional; conditions: HCT-116, 48 h
Hs-578T = test: Growth inhibition of human Hs 578T cells after 48 hrs by sulforhodamine B assay; format: functional
SF-539 = test: Growth inhibition of human SF539 cells at 10 uM after 48 hrs by sulforhodamine B assay; format: functional, cell-based
UACC-62 = test: Growth inhibition of human UACC62 cells after 48 hrs by sulforhodamine B assay; format: functional; conditions: UACC-62, 48 h
MCF7 [5] = test: Growth inhibition of human MCF7 cells at 10 uM after 48 hrs by sulforhodamine B assay; format: functional, cell-based
KM12 = test: Growth inhibition of human KM12 cells at 10 uM after 48 hrs by sulforhodamine B assay; format: functional, cell-based
SK-MEL-2 = test: Growth inhibition of human SK-MEL-2 cells at 10 uM after 48 hrs by sulforhodamine B assay; format: functional, cell-based
A498 = test: Growth inhibition of human A498 cells at 10 uM after 48 hrs by sulforhodamine B assay; format: functional, cell-based
A549 = test: Growth inhibition of human A549/ATCC cells at 10 uM after 48 hrs by sulforhodamine B assay; format: functional, cell-based
SNB-19 [6] = test: Growth inhibition of human SNB19 cells after 48 hrs by sulforhodamine B assay; format: functional; conditions: SNB-19, 48 h
UO-31 [7] = test: Growth inhibition of human UO31 cells after 48 hrs by sulforhodamine B assay; format: functional; conditions: UO-31, 48 h
EKVX [8] = test: Growth inhibition of human EKVX cells at 10 uM after 48 hrs by sulforhodamine B assay; format: functional, cell-based
HCC 2998 = test: Growth inhibition of human HCC2998 cells after 48 hrs by sulforhodamine B assay; format: functional; conditions: HCC 2998, 48 h
BT-549 [9] = test: Growth inhibition of human BT549 cells at 10 uM after 48 hrs by sulforhodamine B assay; format: functional, cell-based
COLO 205 [10] = test: Growth inhibition of human COLO205 cells at 10 uM after 48 hrs by sulforhodamine B assay; format: functional, cell-based
MCF7 [11] = test: Growth inhibition of human MCF7 cells after 48 hrs by sulforhodamine B assay; format: functional; conditions: MCF7, 48 h
M14 [12] = test: Growth inhibition of human M14 cells after 48 hrs by sulforhodamine B assay; format: functional; conditions: M14, 48 h
UO-31 [13] = test: Growth inhibition of human UO31 cells at 10 uM after 48 hrs by sulforhodamine B assay; format: functional, cell-based
RXF 393 = test: Growth inhibition of human RXF393 cells after 48 hrs by sulforhodamine B assay; format: functional; conditions: RXF 393, 48 h
786-0 = test: Growth inhibition of human 786-0 cells at 10 uM after 48 hrs by sulforhodamine B assay; format: functional, cell-based
TK-10 = test: Growth inhibition of human TK10 cells after 48 hrs by sulforhodamine B assay; format: functional; conditions: TK-10, 48 h
NCI-H322M = test: Growth inhibition of human NCI-H322M cells at 10 uM after 48 hrs by sulforhodamine B assay; format: functional, cell-based
NCI-H23 = test: Growth inhibition of human NCI-H23 cells at 10 uM after 48 hrs by sulforhodamine B assay; format: functional, cell-based
PC-3 = test: Growth inhibition of human PC3 cells at 10 uM after 48 hrs by sulforhodamine B assay; format: functional, cell-based
OVCAR-4 = test: Growth inhibition of human OVCAR4 cells at 10 uM after 48 hrs by sulforhodamine B assay; format: functional, cell-based
HOP-62 = test: Growth inhibition of human HOP62 cells at 10 uM after 48 hrs by sulforhodamine B assay; format: functional, cell-based
OVCAR-3 = test: Growth inhibition of human OVCAR3 cells at 10 uM after 48 hrs by sulforhodamine B assay; format: functional, cell-based
NCI/ADR-RES [14] = test: Growth inhibition of human NCI-ADR-RES cells at 10 uM after 48 hrs by sulforhodamine B assay; format: functional, cell-based
SK-MEL-5 = test: Growth inhibition of human SK-MEL-5 cells at 10 uM after 48 hrs by sulforhodamine B assay; format: functional, cell-based
EKVX [15] = test: Growth inhibition of human EKVX cells after 48 hrs by sulforhodamine B assay; format: functional
NCI/ADR-RES [16] = test: Growth inhibition of human NCI-ADR-RES cells after 48 hrs by sulforhodamine B assay; format: functional
NCI-H460 = test: Growth inhibition of human NCI-H460 cells at 10 uM after 48 hrs by sulforhodamine B assay; format: functional, cell-based
MDA-MB-231 [17] = test: Growth inhibition of human MDA-MB-231 cells at 10 uM after 48 hrs by sulforhodamine B assay; format: functional, cell-based
M14 [18] = test: Growth inhibition of human M14 cells at 10 uM after 48 hrs by sulforhodamine B assay; format: functional, cell-based
RPMI-8226 = test: Growth inhibition of human RPMI8226 cells after 48 hrs by sulforhodamine B assay; format: functional; conditions: RPMI-8226, 48 h
[19] = read-out: LC50 (the source's name)

O=C1/C(=C\c2cccn2Cc2ccccc2)c2ccccc2N1c1c(Cl)cccc1Cl
growth inhibition (GI) (K562): Active | growth inhibition (GI) (SK-OV-3): Active | growth inhibition (GI) (CCRF-CEM): Active | growth inhibition (GI) (SNB-19 [1]): Active | GI50 (MDA-MB-231 [2]): 5.88 µM | TGI (MDA-MB-231 [2]): > 100 µM | CC50 (MDA-MB-231 [2]; [19]): > 100 µM | GI50 (COLO 205 [3]): 1040 nM | TGI (COLO 205 [3]): 9.33 µM | CC50 (COLO 205 [3]; [19]): > 100 µM | GI50 (BT-549 [4]): > 100 µM | TGI (BT-549 [4]): > 100 µM | CC50 (BT-549 [4]; [19]): > 100 µM | GI50 (HCT-116): 3.38 µM | TGI (HCT-116): > 100 µM | CC50 (HCT-116; [19]): > 100 µM | GI50 (Hs-578T): > 100 µM | TGI (Hs-578T): > 100 µM | CC50 (Hs-578T; [19]): > 100 µM | growth inhibition (GI) (SF-539): Active | GI50 (UACC-62): 2080 nM | TGI (UACC-62): > 100 µM | CC50 (UACC-62; [19]): > 100 µM | growth inhibition (GI) (MCF7 [5]): Active | growth inhibition (GI) (KM12): Active | growth inhibition (GI) (SK-MEL-2): Active | growth inhibition (GI) (A498): Active | growth inhibition (GI) (A549): Active | GI50 (SNB-19 [6]): > 100 µM | TGI (SNB-19 [6]): > 100 µM | CC50 (SNB-19 [6]; [19]): > 100 µM | GI50 (UO-31 [7]): 3.16 µM | TGI (UO-31 [7]): > 100 µM | CC50 (UO-31 [7]; [19]): > 100 µM | growth inhibition (GI) (EKVX [8]): Active | GI50 (HCC 2998): 870 nM | TGI (HCC 2998): > 100 µM | CC50 (HCC 2998; [19]): > 100 µM | growth inhibition (GI) (BT-549 [9]): Active | growth inhibition (GI) (COLO 205 [10]): Active | GI50 (MCF7 [11]): 35 nM | TGI (MCF7 [11]): > 100 µM | CC50 (MCF7 [11]; [19]): > 100 µM | GI50 (M14 [12]): > 100 µM | TGI (M14 [12]): > 100 µM | CC50 (M14 [12]; [19]): > 100 µM | growth inhibition (GI) (UO-31 [13]): Active | GI50 (RXF 393): > 100 µM | TGI (RXF 393): > 100 µM | CC50 (RXF 393; [19]): > 100 µM | growth inhibition (GI) (786-0): Active | GI50 (TK-10): 640 nM | TGI (TK-10): > 100 µM | CC50 (TK-10; [19]): > 100 µM | growth inhibition (GI) (NCI-H322M): Active | growth inhibition (GI) (NCI-H23): Active | growth inhibition (GI) (PC-3): Active | growth inhibition (GI) (OVCAR-4): Active | growth inhibition (GI) (HOP-62): Active | growth inhibition (GI) (OVCAR-3): Active | growth inhibition (GI) (NCI/ADR-RES [14]): Active | growth inhibition (GI) (SK-MEL-5): Active | GI50 (EKVX [15]): 410 nM | TGI (EKVX [15]): 7.94 µM | CC50 (EKVX [15]; [19]): > 100 µM | GI50 (NCI/ADR-RES [16]): > 100 µM | TGI (NCI/ADR-RES [16]): > 100 µM | CC50 (NCI/ADR-RES [16]; [19]): > 100 µM | growth inhibition (GI) (NCI-H460): Active | growth inhibition (GI) (MDA-MB-231 [17]): Active | growth inhibition (GI) (M14 [18]): Active | GI50 (RPMI-8226): 1280 nM | TGI (RPMI-8226): > 100 µM | CC50 (RPMI-8226; [19]): > 100 µM
